Blank lines part the entries; values can stand above or below the molecule they belong to. Ends that are not written are not given here.
What was measured:
c-Src = c-Src (Homo sapiens, UniProt P12931); experiment: c-Src activation (autophosphorylation), anti-c-Src immunoprecipitation and immunoblot; assay type: cell-based; conditions: HCT116/MUC1 cells
Description: (§1) Cell culture. Human HCT116/vector, HCT116/MUC1, HCT116/MUC1(Y46F) (Ren et al. (2004) Cancer Cell 5:163-175) and HCT116/MUC1-CD (Huang et al. (2003) Cancer Biol. Ther. 2:702-706) cells were cultured in Dulbecco's Modified Eagle Medium/F12 with 10% heat-inactivated fetal bovine serum (HI-FBS), 100 units/ml penicillin, […], and 2 mM L-glutamine. Human HeLa cervical carcinoma, 293 embryonic kidney and MCF-7 breast cancer cells were grown in Dulbecco's Modified Eagle Medium containing 10% HI-FBS, antibiotics and L-glutamine. Human ZR-75-1 breast cancer cells were cultured in RPMI1640 medium containing 10% HI-FBS, antibiotics and L-glutamine. Cells were grown to 60% confluence and then maintained overnight in medium with 0.1% serum before treatment with heregulin (HRG; 20 ng/ml; Calbiochem-Novabiochem, LaJolla, Calif.).
(§2) Immunoprecipitation and immunoblotting. […] Reactivity was detected with horseradish peroxidase-conjugated secondary antibodies and chemiluminescence (PerkinElmer Life Sciences, Boston, Mass.). Intensity of the signals was determined by densitometric scanning. Statistical significance was determined by the Student's t-test.

[1] = tested on: binding of MUC1 and HSP90; experiment: MUC1-HSP90 co-immunoprecipitation and immunoblot in cells; assay type: cell-based, Human
Description: Cell culture. […] Human ZR-75-1 breast cancer cells were cultured in RPMI1640 medium containing 10% HI-FBS, antibiotics and L-glutamine. Cells were grown to 60% confluence and then maintained overnight in medium with 0.1% serum before treatment with heregulin (HRG; 20 ng/ml; Calbiochem-Novabiochem, LaJolla, Calif.).
Immunoprecipitation and immunoblotting. […] Lysates not subjected to immunoprecipitation were immunoblotted with anti-MUC1-C, anti-HSP60 (Stressgen Biotechnologies, Victoria, BC, Canada), anti-PDGFR (Santa Cruz Biotechnology), anti-BAP31 (Abcam, Cambridge, Mass.), anti-PCNA (Calbiochem-Novabiochem), anti-IkBa (Santa Cruz Biotechnology), anti-calreticulin (Stressgen Biotechnologies), anti-Tom20 (BD Biosciences), anti-Tim23 (BD Biosciences), anti-Tim44 (BD Biosciences) or anti-β-actin (Sigma-Aldrich). Reactivity was detected with horseradish peroxidase-conjugated secondary antibodies and chemiluminescence (PerkinElmer Life Sciences, Boston, Mass.). Intensity of the signals was determined by densitometric scanning. Statistical significance was determined by the Student's t-test.
Subcellular fractionation. […] SM buffer ([…]) was added to one aliquot, and hypotonic buffer (10 mM MOPS-KOH, pH 7.2; […]) was added to the other aliquot. The samples were incubated for 15 minutes on ice and then left untreated or digested with […] trypsin (Sigma-Aldrich) for 15 minutes at 4° C. In other experiments, purified mitochondria in suspension buffer (5 mM HEPES, pH 7.4, 210 mM mannitol, 70 mM sucrose, 100 mM KCl, and 1 mM EGTA) were treated with 0.5% or 1% digitonin (Sigma-Aldrich) for 15 minutes at 4° C. Alternatively, the mitochondria were incubated with 0.5% digitonin for 1 minute at 4° C., diluted with suspension buffer, and then treated with […] trypsin for 15 minutes at 4° C.

[2] = tested on: localization of MUC1-C to mitochondria; experiment: Immunoblot of purified mitochondria for MUC1 targeting; assay type: cell-based, Human; conditions: HCT116/MUC1 cells
Description: as §1
as §2, with “t-test. […]” for “t-test.”

[3] = molecular target: HSP70 (endogenous, in lysates of human cells) (human) (UniProt P0DMV8); experiment: anti-MUC1-N immunoprecipitation from HCT116/MUC1 lysates, immunoblot, scanning densitometry
[4] = tested on: purified recombinant human HSP90; experiment: GST pull-down binding study with recombinant HSP90; conditions: for binding to HSP90 after incubation with c-Src and ATP: GST fusion proteins incubated with c-Src and ATP 20 minutes at 30° C., then HSP90 1 hour at 4° C.
Description: (§3) Binding Studies. Sequences encoding MUC1-CD, MUC1-CD(1-45), or MUC1-CD(46-72) were amplified by PCR and cloned into the pGEX-4T vector (Amersham Biosciences, Piscataway, N.J.). Purified GST-MUC1-CD fusion proteins bound to glutathione beads were incubated with purified recombinant human HSP70 or HSP90 (Stressgen Biotechnologies) for 1 hour at 4° C. In other experiments, the purified GST fusion proteins bound to glutathione beads were incubated with or without 50 ng c-Src (Upstate Biotechnology) in the presence of […] for 20 minutes at 30° C. HSP90 was then added for 1 hour at 4° C. Precipitated proteins were subjected to immunoblot analysis with anti-HSP70 or anti-HSP90.

[5] = molecular target: T1, purified recombinant human HSP70 (Homo sapiens, UniProt P0DMV8); experiment: GST pull-down binding study with recombinant HSP70; conditions: GST fusion proteins on glutathione beads, 1 hour at 4° C., no c-Src
T1 construct: purchased Stressgen Biotechnologies
T1 sequence (P0DMV8 2-641 limits assumed): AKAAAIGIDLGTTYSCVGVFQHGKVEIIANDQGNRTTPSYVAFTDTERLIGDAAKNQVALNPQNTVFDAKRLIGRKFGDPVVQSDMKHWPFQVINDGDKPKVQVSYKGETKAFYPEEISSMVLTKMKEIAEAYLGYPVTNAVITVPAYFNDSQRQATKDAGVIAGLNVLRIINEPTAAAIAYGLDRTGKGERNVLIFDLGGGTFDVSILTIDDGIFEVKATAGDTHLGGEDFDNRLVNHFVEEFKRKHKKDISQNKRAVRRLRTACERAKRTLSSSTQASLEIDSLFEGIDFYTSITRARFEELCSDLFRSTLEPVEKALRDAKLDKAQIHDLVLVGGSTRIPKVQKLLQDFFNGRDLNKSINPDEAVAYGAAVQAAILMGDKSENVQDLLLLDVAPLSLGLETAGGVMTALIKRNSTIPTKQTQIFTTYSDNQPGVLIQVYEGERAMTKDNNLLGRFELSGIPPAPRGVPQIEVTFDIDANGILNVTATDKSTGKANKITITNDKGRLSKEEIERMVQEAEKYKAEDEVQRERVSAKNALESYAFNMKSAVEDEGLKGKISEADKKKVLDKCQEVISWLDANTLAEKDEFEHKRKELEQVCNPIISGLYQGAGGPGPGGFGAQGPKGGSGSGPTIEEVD
Description: as §3

[6] = tested on: binding of MUC1 and HSP70; experiment: MUC1-HSP70 co-immunoprecipitation and immunoblot in cells; assay type: cell-based, Human; conditions: HRG 10 minutes
Description: as §1
Immunoprecipitation and immunoblotting. Equal amounts of protein from cell lysates were incubated with anti-MUC1-N (antibody DF3) (Kufe et al. (1984) Hybridoma 3:223-232), anti-Flag (Sigma-Aldrich, St. Louis, Mo.), anti-c-Src (Upstate Biotechnology, Lake Placid, N.Y.), anti-HSP90 (BD Biosciences PharMingen, San Diego, Calif.) or normal mouse IgG (Santa Cruz Biotechnology, Santa Cruz, Calif.) for 2 hours at 4° C. Immune complexes were prepared as described (Li et al. (1998) Mol. Cell. Biol. 18:7216-7224) and subjected to immunoblot analysis with anti-HSP70, anti-HSP90, anti-MUC1-N, anti-MUC1-C (Ab5; Neomarkers, Fremont, Calif.), anti-phospho-c-Src(Tyr416) (Cell Signaling Technology, Beverly, Mass.) or anti-c-Src. […] Reactivity was detected with horseradish peroxidase-conjugated secondary antibodies and chemiluminescence (PerkinElmer Life Sciences, Boston, Mass.). Intensity of the signals was determined by densitometric scanning. Statistical significance was determined by the Student's t-test.

cytosolic MUC1-C levels = experiment: Immunoblot of cytosolic fractions for MUC1-C; assay type: cell-based, Human; conditions: cytosolic fraction of HCT116/MUC1 cells; HRG 10 minutes
Description: as §1
as §2, with “t-test. […]” for “t-test.”

[7] = molecular target: T2, purified recombinant human HSP90 (human, UniProt P08238 1-724, limits assumed); experiment: GST pull-down with recombinant HSP90 after incubation with c-Src and ATP, anti-HSP90 immunoblot
T2 construct: Bought (Stressgen Biotechnologies); also called recombinant HSP90
T2 sequence (P08238 whole entry T147R/R177M): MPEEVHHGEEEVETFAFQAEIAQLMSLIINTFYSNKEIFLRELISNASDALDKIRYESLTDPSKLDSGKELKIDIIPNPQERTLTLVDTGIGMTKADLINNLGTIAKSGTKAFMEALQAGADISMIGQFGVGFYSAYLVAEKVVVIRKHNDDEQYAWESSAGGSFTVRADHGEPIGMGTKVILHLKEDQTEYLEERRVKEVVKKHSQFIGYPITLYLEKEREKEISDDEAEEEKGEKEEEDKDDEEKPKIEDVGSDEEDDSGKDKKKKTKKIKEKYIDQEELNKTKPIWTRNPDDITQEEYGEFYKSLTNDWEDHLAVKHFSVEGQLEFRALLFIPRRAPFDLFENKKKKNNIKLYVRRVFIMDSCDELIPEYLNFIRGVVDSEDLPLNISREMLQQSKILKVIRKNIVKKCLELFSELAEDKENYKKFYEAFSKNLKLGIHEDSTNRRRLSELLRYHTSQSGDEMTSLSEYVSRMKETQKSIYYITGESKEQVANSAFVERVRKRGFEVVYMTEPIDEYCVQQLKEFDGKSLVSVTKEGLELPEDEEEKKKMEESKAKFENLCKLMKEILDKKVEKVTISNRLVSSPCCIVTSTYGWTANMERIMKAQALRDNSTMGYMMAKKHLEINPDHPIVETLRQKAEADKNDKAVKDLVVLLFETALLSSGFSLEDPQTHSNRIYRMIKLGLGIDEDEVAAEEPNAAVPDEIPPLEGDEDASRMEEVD

Molecule: CC(C)(C)n1nc(-c2ccc(Cl)cc2)c2c(N)ncnc21 [PP2, reference compound]
HRG-induced c-Src activation (c-Src; PP2 10 μM for 1 hour, then HRG 20 ng/ml 10 minutes): blocked HRG-induced c-Src activation | HRG-induced binding of MUC1 and HSP90 in presence of inhibitor ([1]; HCT116/MUC1 cells, PP2 10 μM or GA 1 μM for 1 hour, then HRG, anti-MUC1-N precipitates): attenuated this response | HRG-induced targeting of MUC1 to mitochondria in presence of inhibitor ([2]; PP2 or GA for 1 hour, then HRG): attenuated

Molecule: MUC1-CD(1-45): GST fusion deletion mutant, amino acids 1-45 of the MUC1 cytoplasmic domain (CQCRRKNYGQLDIFPARDTYHPMSEYPTYHTHGRYVPPSSTDRSP; not fully specified; cysteine pairing not given here; also: fused to GST)
binding to HSP90 after incubation with c-Src and ATP [4]: no detectable binding of HSP90

B1: GST-MUC1-CD(1-45) (other)
chain: CQCRRKNYGQLDIFPARDTYHPMSEYPTYHTHGRYVPPSSTDRSP
modifications: not fully specified; cysteine pairing not given here; also: N-terminal GST fusion (pGEX-4T), sequence not given here
notes: Deletion mutant of MUC1-CD on glutathione beads; it lacks Y-46; not shown: glutathione S-transferase (GST) tag encoded by the pGEX-4T vector
binding result [7]: no binding

More lines, main results first:

percent of the total HSP70 pool associated with MUC1 [3]: 0.6%
Molecule: MUC1 (human, full length, expressed in cells) (from UniProt P15941 24-1255)

binding to HSP70 [5]: binding to HSP70 was detected | binding to HSP90 after incubation with c-Src and ATP [4]: no detectable binding of HSP90
Molecule: MUC1-CD(46-72): GST fusion of amino acids 46-72 (YEKVSAGNGGSSLSYTNPAVAATSANL; SEQ ID NO:2) of the human MUC1 CD (not fully specified; also: fused to GST)

binding to HSP70 [5]: binds to HSP70 | binding to HSP90 ([4]; GST fusion protein on glutathione beads, 1 hour at 4° C., no c-Src): but not HSP90
Molecule: MUC1-CD: GST fusion of the 72 amino acid MUC1 cytoplasmic domain (SEQ ID NO:1)
binding to HSP90 after incubation with c-Src and ATP [4]: c-Src induced binding of MUC1-CD to HSP90

c-Src activation as determined by autophosphorylation (c-Src; HRG 20 ng/ml 10 minutes): activated c-Src
Molecule: heregulin [HRG]
binding of MUC1-CD to HSP90 on HRG stimulation ([1]; HCT116/MUC1-CD (Flag-MUC1-CD) cells, HRG 10 minutes): stimulated binding of MUC1-CD to HSP90 | binding of MUC1 and HSP90 on HRG stimulation ([1]; HCT116/MUC1 cells, HRG 20 ng/ml 10 minutes): increase in binding of MUC1 and HSP90 | binding of endogenous MUC1 and HSP90 on HRG stimulation ([1]; MCF-7 breast cancer cells, HRG 10 minutes): increased binding of MUC1 and HSP90 | binding of endogenous MUC1 and HSP90 on HRG stimulation ([1]; ZR-75-1 breast cancer cells, HRG 10 minutes): increased binding of MUC1 and HSP90 | binding of cytosolic MUC1-C and HSP90 ([1]; cytosolic fraction of HCT116/MUC1 cells, HRG 10 minutes, anti-HSP90 precipitates): increases binding of cytosolic MUC1-C and HSP90 | binding of MUC1 and HSP90 at the cell membrane ([1]; purified cell membranes of HCT116/MUC1 cells, HRG 10 minutes): stimulates binding of MUC1 and HSP90 at the cell membrane | binding of MUC1-CD to HSP70 on HRG stimulation ([6]; HCT116/MUC1-CD (Flag-MUC1-CD) cells): little effect on binding of MUC1-CD to HSP70 | binding of endogenous MUC1 and HSP70 on HRG stimulation ([6]; MCF-7 breast cancer cells): little if any effect on this interaction | binding of endogenous MUC1 and HSP70 on HRG stimulation ([6]; ZR-75-1 breast cancer cells): no apparent effect on the constitutive interaction between MUC1 and HSP70 | localization of MUC1-C to mitochondria on HRG stimulation ([2]; HRG 10 minutes): induces localization of MUC1-C, and not MUC1-N, to mitochondria | cytosolic MUC1-C levels (cytosolic MUC1-C levels): increase in cytosolic MUC1-C levels

Reference: patent US8017315B2, “Mitochondrial localization of MUC1” (Dana Farber Cancer Institute, Inc., priority 2005, dated 2011)
